Data: US20220175693A1, “DIETARY SUPPLEMENT COMPRISING LUTEIN FOR TELOMERE PROTECTION, AND METHOD FOR PRODUCTION THEREOF” (BIOGEN EXTRACTS PRIVATE LIMITED, priority 2019, published 2022)

Key:
[1] = test system: human adult primary fibroblast cells; assay: Telomere length by Telomere Analysis Technology (HT Q-FISH) and telomere shortening rate; format: cell-based
Description: A high-throughput (HT) Q-FISH technique was used. This method is based on a quantitative fluorescence in-situ hybridization method modified for cells in interphase2. In brief, telomeres are hybridized with a fluorescent Peptide Nucleic Acid probe (PNA) that recognizes three telomere repeats. The images of the nuclei and telomeres are captured by a high-content screen system. The intensity of the fluorescent signal from the telomeric PNA probes that hybridize to a given telomere is proportional to the length of that telomere. The intensities of fluorescence are translated to base pairs through a standard regression curve which is generated using control cell lines with known telomere length.
(§1) Sample Preparation and HT Q-FISH: On processing day, the samples and control cell lines frozen in liquid nitrogen are thawed at 37° C. and cell counts and cellular viability are determined. Aliquots with viability lower than 60% are considered below our QC standards and are not further analyzed. Cells are seeded in clear bottom black-walled 384-well plates at 15,000 cells per well in 5 replicates for each sample and 8 replicates for each control cell line.
Cells are fixed with methanol/acetic acid (3/1, vol/vol). Once these cells have fixed onto the plate, they are treated with pepsin to digest the cytoplasm and the nuclei are processed for in situ hybridization with the PNA probe. After several washing steps following standard DAPI incubation for DNA staining, the wells are filled up with mounting medium and the plate is stored overnight at 4° C.
HT Microscopy: Quantitative image acquisition and analysis is performed on a High Content Screening Opera System. Images are captured, using a 40×0.95 NA water immersion objective. UV and 488 nm excitation wavelengths are used to detect the DAPI and A488 signals respectively. With constant exposure settings, 15 independent images are captured at different positions for each well. Next, the nuclei images are used to define the region of interest for each cell, measuring telomere fluorescence intensity of the A488 image in all of them. The results of intensity for each foci are exported to the Columbus 2.4 software. Telomere length distribution and median telomere length are calculated with Life Length's proprietary program.
Median telomere length, 20th percentile telomere length, percentage of short telomeres and the coefficients of variation for each set of samples. The percentage of short telomeres is defined as the percentage of those below 3 Kbp (<3 Kbp). As mentioned earlier, measurements in five replicates per sample were performed.
For TAT analysis, data were grouped by condition (Ctrl, H2O2, LUT10, LUT5, LUT1, LUT10+H2O2, LUT5+H2O2, LUT1+H2O2) and time point of treatment (0, 4, and 8 weeks).
Due to the fact that DNA replication during the cell cycle causes of telomere shortening, the telomere length measurements performed were normalized by the total number of population doubling (cell replication) in each condition and week.
Telomere shortening rate was analysed, Median of telomere length (initial-final)/Population Doubling, at the defined time points and treatments, FIG. 8.
Graph of telomere length vs Population doubling at different treatments. Slope of regression line in each condition, represents the telomere shortening rate. Y=aX+b; a=slope andbb=y intercept, FIG. 9.

[2] = test system: human adult primary fibroblast cells; assay: Cell count and viability of samples after thawing (Tripan-Blue exclusion); format: cell-based
Procedure: as §1, with “line. Cell count: An automated cell counter is used to determine the total number of cells in the vials. A minimum of 100.000 cells are needed to perform TAT. Cell viability by Tripan-Blue exclusion method. The exclusion criteria currently in place will reject aliquots with less than 60% viable cells.” for “line.”

[3] = Lutein 1 μg/ml + 10 μM H2O2, week 4 (P4)
[4] = Lutein 1 μg/ml + 10 μM H2O2, week 8 (P8)
[5] = Lutein 1 μg/ml, standard culture, week 4 (P4)
[6] = Lutein 1 μg/ml, standard culture, week 8 (P8)
[7] = Lutein 5 μg/ml + 10 μM H2O2, week 4 (P4)
[8] = Lutein 5 μg/ml + 10 μM H2O2, week 8 (P8)
[9] = Lutein 5 μg/ml, standard culture, week 4 (P4)
[10] = Lutein 5 μg/ml, standard culture, week 8 (P8)
[11] = Lutein 10 μg/ml + 10 μM H2O2, week 4 (P4)
[12] = Lutein 10 μg/ml + 10 μM H2O2, week 8 (P8)
[13] = Lutein 10 μg/ml, standard culture, week 4 (P4)
[14] = Lutein 10 μg/ml, standard culture, week 8 (P8)

CC1=C[C@H](O)CC(C)(C)[C@H]1/C=C/C(C)=C/C=C/C(C)=C/C=C/C=C(C)/C=C/C=C(C)/C=C/C1=C(C)C[C@@H](O)CC1(C)C [Lutein]
Telomere shortening rate versus control ([1]; Lutein 1 μg/ml (LUT1), standard conditions, 8 weeks): significant increase
Median Telomere Length (Table 7A) ([1]; Lutein 1 μg/ml + 10 μM H2O2, week 4): 5980 bp
20th Percentile Length (telomere, TAT) [1, 3]: 3381 base pairs
Median Length (telomere, TAT) [1, 3]: 5997 base pairs
Telomere shortening rate (Median of telomere length (initial-final)/Population Doubling) [1, 3]: 111 bp/PD
Telomeres <3 Kbp (percentage of short telomeres) [1, 3]: 16.72%
Median Telomere Length (Table 7A) ([1]; Lutein 1 μg/ml + 10 μM H2O2, week 8): 6045 bp
20th Percentile Length (telomere, TAT) [1, 4]: 2848 base pairs
Median Length (telomere, TAT) [1, 4]: 6037 base pairs
Telomere shortening rate (Median of telomere length (initial-final)/Population Doubling) [1, 4]: 63 bp/PD
Telomeres <3 Kbp (percentage of short telomeres) [1, 4]: 21.14%
Slope (Telomere Shortening Rate) of regression line, telomere length vs Population doubling ([1]; Lutein 1 μg/ml + 10 μM H2O2, weeks 0-8): y = −66.365x + 7187.3
Median Telomere Length (Table 7A) ([1]; Lutein 1 μg/ml, standard culture, week 4): 5984 bp
20th Percentile Length (telomere, TAT) [1, 5]: 3351 base pairs
Median Length (telomere, TAT) [1, 5]: 5977 base pairs
Telomere shortening rate (Median of telomere length (initial-final)/Population Doubling) [1, 5]: 100 bp/PD
Telomeres <3 Kbp (percentage of short telomeres) [1, 5]: 16.87%
Median Telomere Length (Table 7A) ([1]; Lutein 1 μg/ml, standard culture, week 8): 6071 bp
20th Percentile Length (telomere, TAT) [1, 6]: 2848 base pairs
Median Length (telomere, TAT) [1, 6]: 6077 base pairs
Telomere shortening rate (Median of telomere length (initial-final)/Population Doubling) [1, 6]: 53 bp/PD
Telomeres <3 Kbp (percentage of short telomeres) [1, 6]: 21.29%
Slope (Telomere Shortening Rate) of regression line, telomere length vs Population doubling ([1]; Lutein 1 μg/ml, standard culture, weeks 0-8): y = −55.261x + 7163.8
Median Telomere Length (Table 7A) ([1]; Lutein 5 μg/ml + 10 μM H2O2, week 4): 6085 bp
20th Percentile Length (telomere, TAT) [1, 7]: 3351 base pairs
Median Length (telomere, TAT) [1, 7]: 6077 base pairs
Telomere shortening rate (Median of telomere length (initial-final)/Population Doubling) [1, 7]: 93 bp/PD
Telomeres <3 Kbp (percentage of short telomeres) [1, 7]: 16.97%
Median Telomere Length (Table 7A) ([1]; Lutein 5 μg/ml + 10 μM H2O2, week 8): 5980 bp
20th Percentile Length (telomere, TAT) [1, 8]: 2977 base pairs
Median Length (telomere, TAT) [1, 8]: 5977 base pairs
Telomere shortening rate (Median of telomere length (initial-final)/Population Doubling) [1, 8]: 59 bp/PD
Telomeres <3 Kbp (percentage of short telomeres) [1, 8]: 20.09%
Slope (Telomere Shortening Rate) of regression line, telomere length vs Population doubling ([1]; Lutein 5 μg/ml + 10 μM H2O2, weeks 0-8): y = −61.587x + 7222
Median Telomere Length (Table 7A) ([1]; Lutein 5 μg/ml, standard culture, week 4): 6340 bp
20th Percentile Length (telomere, TAT) [1, 9]: 3104 base pairs
Median Length (telomere, TAT) [1, 9]: 6349 base pairs
Telomere shortening rate (Median of telomere length (initial-final)/Population Doubling) [1, 9]: 80 bp/PD
Telomeres <3 Kbp (percentage of short telomeres) [1, 9]: 18.98%
Median Telomere Length (Table 7A) ([1]; Lutein 5 μg/ml, standard culture, week 8): 6177 bp
20th Percentile Length (telomere, TAT) [1, 10]: 2945 base pairs
Median Length (telomere, TAT) [1, 10]: 6037 base pairs
Telomere shortening rate (Median of telomere length (initial-final)/Population Doubling) [1, 10]: 55 bp/PD
Telomeres <3 Kbp (percentage of short telomeres) [1, 10]: 20.51%
Slope (Telomere Shortening Rate) of regression line, telomere length vs Population doubling ([1]; Lutein 5 μg/ml, standard culture, weeks 0-8): y = −56.796x + 7261.1
Median Telomere Length (Table 7A) ([1]; Lutein 10 μg/ml + 10 μM H2O2, week 4): 5804 bp
20th Percentile Length (telomere, TAT) [1, 11]: 3073 base pairs
Median Length (telomere, TAT) [1, 11]: 5772 base pairs
Telomere shortening rate (Median of telomere length (initial-final)/Population Doubling) [1, 11]: 118 bp/PD
Telomeres <3 Kbp (percentage of short telomeres) [1, 11]: 19.10%
Median Telomere Length (Table 7A) ([1]; Lutein 10 μg/ml + 10 μM H2O2, week 8): 5972 bp
20th Percentile Length (telomere, TAT) [1, 12]: 2977 base pairs
Median Length (telomere, TAT) [1, 12]: 5977 base pairs
Telomere shortening rate (Median of telomere length (initial-final)/Population Doubling) [1, 12]: 66 bp/PD
Telomeres <3 Kbp (percentage of short telomeres) [1, 12]: 20.09%
Slope (Telomere Shortening Rate) of regression line, telomere length vs Population doubling ([1]; Lutein 10 μg/ml + 10 μM H2O2, weeks 0-8): y = −71.479x + 7181.9
Median Telomere Length (Table 7A) ([1]; Lutein 10 μg/ml, standard culture, week 4): 6272 bp
20th Percentile Length (telomere, TAT) [1, 13]: 3198 base pairs
Median Length (telomere, TAT) [1, 13]: 6330 base pairs
Telomere shortening rate (Median of telomere length (initial-final)/Population Doubling) [1, 13]: 81 bp/PD
Telomeres <3 Kbp (percentage of short telomeres) [1, 13]: 18.48%
Median Telomere Length (Table 7A) ([1]; Lutein 10 μg/ml, standard culture, week 8): 6008 bp
20th Percentile Length (telomere, TAT) [1, 14]: 2977 base pairs
Median Length (telomere, TAT) [1, 14]: 5997 base pairs
Telomere shortening rate (Median of telomere length (initial-final)/Population Doubling) [1, 14]: 56 bp/PD
Telomeres <3 Kbp (percentage of short telomeres) [1, 14]: 20.21%
Slope (Telomere Shortening Rate) of regression line, telomere length vs Population doubling ([1]; Lutein 10 μg/ml, standard culture, weeks 0-8): y = −57.039x + 7250
Telomere shortening rate compared to control (H2O2) ([1]; Lutein 10, 5 and 1 μg/ml + 10 μM H2O2, after 8 passages): significant difference
Effect on telomere length erosion in vitro ([1]; oxidative stress conditions, after 8 passages): significant protective effect
Telomere analysis versus control, other differences ([1]; treated groups in standard conditions (LUT10, LUT5, LUT1), 8 weeks): No other significant differences
Viability of sample after thawing [2, 3]: 87%
Viability of sample after thawing [2, 4]: 87%
Viability of sample after thawing [2, 5]: 80%
Viability of sample after thawing [2, 6]: 91%
Viability of sample after thawing [2, 7]: 81%
Viability of sample after thawing [2, 8]: 76%
Viability of sample after thawing [2, 9]: 96%
Viability of sample after thawing [2, 10]: 91%
Viability of sample after thawing [2, 11]: 96%
Viability of sample after thawing [2, 12]: 92%
Viability of sample after thawing [2, 13]: 96%
Viability of sample after thawing [2, 14]: 87%
